Read-outs that look alike come from different tables or passages of the source.
Assays:
French marigold = details: in vivo; cited from earlier work
chlorophyllitic plants [1] = details: in vivo; cited from earlier work
chlorophyllitic plants [2] = experiment: Photosynthetic disruption by glyphosate; format: in vivo
Protocol: Extensive research has documented that plants are often sensitive to relatively minute concentrations or exposures to unique synthetic compounds or combinations of naturally occurring elements, including micronutrients. For example, glyphosate (aka ROUNDUP®, a synthetic Monsanto/Bayer product) is effective at causing photosynthetic disruption in chlorophyllitic plants at an application rate of as little as 0.75 pounds active ingredient per acre, which equates to only approximately 8 mg/square foot of application, equivalent to approximately 14 ppm application rate. The American Phytopathological Society (APS) reported that micronutrients are generally toxic when present in high amounts, although ‘high concentrations’ are not clearly defined, and little toxicity have been reported at exceptionally low micronutrient concentrations. This occurrence is known as micronutrient toxicity syndrome (MTS). […] In addition, plants can vary considerably from species to species in their susceptibility to nutrient toxicities. For example, Lee and others (1996) reported inducing seed geranium (Pelargonium×hortorum) micronutrient toxicity symptoms by applying nutrient solutions containing 0.5 mg/L B, Cu, or Zn, or as little as 0.25 mg/L Mo, in combination with nitrogen, phosphorus, and potassium. […]

humans [3] = details: cited from earlier work
humans [4] = details: 2005 carcinogen assessment guidelines; cited from earlier work
[5] = test system: seed geranium (Pelargonium×hortorum); details: in combination with nitrogen, phosphorus, and potassium; cited from earlier work

Row | Compound | concentration inducing micro-nutrient toxicity (French marigold) [ng/mL] | endocrine disruptor classification (humans [3]) | also measured
1 | [Mn+2] [manganese] | 1000 | – | –
2 | O=C(O)CNCP(=O)(O)O [glyphosate] | – | – | application rate effective at causing photosynthetic disruption (chlorophyllitic plants [1]): 0.75 pounds active ingredient per acre; application rate effective at causing photosynthetic disruption (chlorophyllitic plants [2]; equates to the rate per acre): approximately 8 mg/square foot; application rate effective at causing photosynthetic disruption (chlorophyllitic plants [2]; equivalent application rate): approximately 14 ppm
3 | [Cu] [copper] | 4000 | – | –
4 | [B] [boron] | 500 | neither classified as endocrine disruptors | –
5 | [Mo] [molybdenum] | 5000 | – | –
6 | borate salts | – | neither classified as endocrine disruptors | U.S. EPA carcinogenicity classification (humans [4]): not likely to be carcinogenic to humans
7 | [Zn] [Zn, zinc] | – | – | nutrient solution concentration inducing micronutrient toxicity symptoms [5]: 0.5 mg/L
8 | OB(O)O [boric acid] | – | neither classified as endocrine disruptors | –
